The IC50 is the midpoint of a concentration-inhibition curve. What is called half-life is the time in which the quantity being followed falls by half. A higher half-life goes with slow loss. For orientation: CLint scaled means the capacity of the preparation to metabolise the compound, expressed as a volume cleared per time. Read a low CLint scaled as greater metabolic stability.

For one data set, the system named is p-Btk/t-Btk. Nature of the data set: Western blotting of p-Btk/t-Btk in anti-IgG stimulated DOHH2 cells. It counts as cell-based. The note with it: DOHH2 cells, 5, 100, 2000 nM, 1 h, anti-IgG stimulation. The protocol: Biological Embodiment 4: Analysis of Influences of Test Compounds on p-Btk/t-Btk, p-PLCγ/t-PLCγ and p-Erk/t-Erk Expression Levels of DOHH2 Cells by Virtue of Western Blotting
1) DOHH2 cells on a logarithmic phase were collected;
2) a cell concentration was adjusted to a needed concentration;
3) 2 ml of cell suspension was added into a 6-well plate for performing culture, three different concentrations, that is, 5 nM, 100 nM and 2000 nM, of test samples were respectively set, and each concentration was repeated once;
4) test samples were added into plate wells, and DMSO served as control, wherein a final concentration of the DMSO was 0.1%;
5) culture was performed for 1 h; and […]
6. protein extraction and quantification […]
5) a protein concentration was determined by using Pierce™ BCA Protein Assay Kit; and
6) according to BCA protein quantification results, all samples were diluted to the same final concentration by adding 4×LDS sample buffer and 10× sample reducing agent into the RIPA buffer solution, and the solution was heated at 100° C. for 10 min. […]
10) chemiluminiscence was detected by Tanon 5200 multi.
7. Quantification of strip intensity
Intensity of each strip was quantified by using Image quant densitometry software. […]
(A western blot detects proteins with antibodies after separation by electrophoresis.)

For another data set, the system named is OCI-LY3. Briefly: In vitro tumor cell proliferation (CellTiter-Glo), OCI-LY3. In kind it is cell-based. The note with it: Homo sapiens, OCI-Ly3, 72 h; read-out: Growth IC50. How it is done:
(§1) Biological Embodiment 8: Study on Effects of Active Compounds for Inhibiting In Vitro Tumor Cell Proliferation
(§2) Promega CellTiter-Glo cell activity detection kit by luminescence (Promega-G7573).
(§3) Tumor cell lines were cultured in a 5% of CO2 incubator at 37° C. according to respective culture conditions; and periodic passage was performed, and cells positioned in a logarithmic phase were taken for planking.
(§4) 3) 90 μL of cell suspension was added into each well of the culture plate, and a culture solution containing no cell was added into blank control;
(§5) 4) the culture plate was cultured overnight in the 5% of CO2 incubator having relative humidity of 100% at 37° C.
(§6) Preparation of a 400× compound storage plate: the compound was diluted from the maximum concentration gradient to the lowest concentration with DMSO. […]
(§7) The following steps were performed according to the specification of the Promega CellTiter-Glo cell activity detection kit by luminescence (Promega-G7573). […]
(§8) 9) the luminescence signal was detected on the 2104 EnVision plate reader.
For orientation: Cellular ATP, detected with luciferase, serves as a proxy for viable cell number.

The test system of the next data set is Mino. Nature of the data set: In vitro tumor cell proliferation (CellTiter-Glo), Mino. In kind it is cell-based. The following applies: Homo sapiens, 72 h, read-out: Growth IC50. How it is done:
as §1, §2, §3, §4, §5, §6, §7, §8

Data set [1] in a line: Rat liver microsome stability test. In kind it is in vitro ADME. The protocol:
Preparation of Buffer Solution:
1. 100 mM potassium phosphate buffer solution, pH of 7.4
Preparation of Test Compound Solution:
1. A test compound solution (10 mM, 5 μL) was diluted with a methanol solution (495 μL), and a 100 μM solution was prepared;
2. Preparation of a working solution: the above solution (50 μL) was diluted with the potassium phosphate buffer solution (450 μL, 100 mM) so as to obtain diluents (10 μM).
NADPH Regeneration System (Final Concentration 1 Unit/mL of Isocitrate Dehydrogenase):
1. beta-NADP, supplier: sigma Cat. No. N0505
3. isocitrate dehydrogenase, supplier: sigma Cat. No. 12002
Cold acetonitrile containing 100 ng/mL of tolbutamide and 100 ng/mL of labetalol serves as an internal standard
1. a 10 μL/well of working solution was added into plates (T0, T5, T10, T20, T30, T60, NCF60) beyond the blank;
2. a 80 μL/well of microsome solution was added, and incubation was performed at 37° C. for 10 min;
3. a 10 μL of 100 mM phosphate buffer solution was added into each well of an NCF60 plate, the plate was placed in a warm bath at 37° C., and timing started;
4. a 10 μL/well of NADPH regeneration system was added after preheating, and a reaction started;
5. incubation was performed at 37° C., and timing started
6. a 300 μL/well of stop solution was added (4° C., containing 100 ng/mL of tolbutamide and 100 ng/mL of labetalol) to end the reaction;
7. the plate was shaken for 10 min;
8. centrifugation was performed at 4° C. at a rotation speed of 4000 rpm; and
9. sample LC/MS/MS detection was performed.
Data Analysis Use Equation of First Order Kinetics to Calculate t½ and Clint(Mic): […]
equation of first order kinetics: […]
In general terms: Microsomes from liver hold many membrane-bound enzymes, among them those of drug oxidation.

On to `C=CC(=O)NN1CCCC(n2nc(-c3ccc(Oc4ccccc4)cc3)c3c(N)ncnc32)C1` (centres unmarked) [Embodiment 6, N-(3-(4-amino-3-(4-phenoxyphenyl)-1H-pyrazolo[3,4-D]pyrimidine-1-yl)-1-piperidyl)-acrylamide], for which, in the data set with p-Btk/t-Btk, the “relative level of p-Btk/t-Btk” value was “obviously decreased”. For the same compound, the IC50 in the data set with OCI-LY3 is more than 10000 nM; with Mino, 2170 nM. Further, the “Remaining (*NCF = 60 min)” value in data set [1] (RLM 0.5, 60 min, no co-factor) turned out to be 105.4%. In data set [1] (RLM 0.5, 60 min with NADPH regenerating system), the “Remaining (T = 60 min)” value is reported as 1.1%. The compound also gave a half-life at 1 µM in data set [1] (rat, liver microsomes, pH 7.4, RLM 0.5 (0.5 mg protein/mL)) of 8.9 min. The microsomal CLint at 1 µM in data set [1] (rat, liver microsomes, pH 7.4, RLM 0.5, read-out: CLint(mic)) turned out to be 155 µL/min/mg. This compound also returned a CLint scaled at 1 µM in data set [1] (rat, liver microsomes, pH 7.4, RLM 0.5, scaled from CLint(mic)) of 280 mL/min/kg.

Values taken from patent US11512085B2, “Heteroaryl compound having drug activity” (SHANGHAI DUDE MEDICAL TECHNOLOGY CO., LTD, priority 2017, dated 2022).
